Results: ChEMBL document CHEMBL4476883, “Hydroxy formamide derivatives and their use” (2017)

Key:
Tolloid-like protein 2 = biological target: T1, Tolloid-like protein 2 (Homo sapiens, UniProt Q9Y6L7); assay: Inhibition of C-terminal Avi-6x-His epitope tagged and N-terminal human RAGE signal sequence tagged recombinant human TLL2 (26 to 1015 amino acids) expressed in CHOE1A cells incubated for 60 mins with promyostatin peptide substrate by FRET based assay; assay type: cell-based
T1 sequence (Q9Y6L7 whole entry): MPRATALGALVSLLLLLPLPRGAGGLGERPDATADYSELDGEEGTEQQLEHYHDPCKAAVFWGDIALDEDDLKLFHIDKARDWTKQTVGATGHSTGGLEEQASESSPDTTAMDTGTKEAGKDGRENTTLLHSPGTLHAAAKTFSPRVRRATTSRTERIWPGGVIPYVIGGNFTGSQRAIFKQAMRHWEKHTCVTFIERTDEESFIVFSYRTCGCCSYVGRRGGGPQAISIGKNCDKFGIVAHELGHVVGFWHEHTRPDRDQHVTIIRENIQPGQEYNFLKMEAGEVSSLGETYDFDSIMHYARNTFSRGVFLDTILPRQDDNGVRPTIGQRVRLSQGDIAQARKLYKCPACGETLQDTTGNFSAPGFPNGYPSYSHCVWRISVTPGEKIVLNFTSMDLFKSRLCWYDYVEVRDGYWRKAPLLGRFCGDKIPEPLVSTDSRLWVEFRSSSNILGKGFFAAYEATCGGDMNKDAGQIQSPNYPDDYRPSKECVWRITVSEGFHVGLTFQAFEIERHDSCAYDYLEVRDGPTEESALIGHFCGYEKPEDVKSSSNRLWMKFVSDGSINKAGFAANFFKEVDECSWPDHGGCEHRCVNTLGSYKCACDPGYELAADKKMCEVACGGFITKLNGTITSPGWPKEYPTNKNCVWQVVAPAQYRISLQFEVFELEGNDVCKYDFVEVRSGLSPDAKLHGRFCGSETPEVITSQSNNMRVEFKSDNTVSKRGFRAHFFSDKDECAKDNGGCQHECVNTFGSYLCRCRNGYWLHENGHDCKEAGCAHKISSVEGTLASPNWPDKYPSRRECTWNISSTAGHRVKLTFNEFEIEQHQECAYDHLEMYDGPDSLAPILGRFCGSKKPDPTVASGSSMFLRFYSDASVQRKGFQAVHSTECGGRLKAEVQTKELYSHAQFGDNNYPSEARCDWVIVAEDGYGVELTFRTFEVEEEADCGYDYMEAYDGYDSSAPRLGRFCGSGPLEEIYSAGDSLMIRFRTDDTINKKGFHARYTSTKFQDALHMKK

Tolloid-like protein 1 = Tolloid-like protein 1 (Homo sapiens, UniProt O43897, I156V/N221S/V284A); assay: Inhibition of recombinant human TLL1 I156V/N221S/V284A mutant expressed in CHOE1A cells pre-incubated for 10 mins before promyostatin peptide substrate addition and measured after 60 mins by FRET based assay; assay type: cell-based
[1] = biological target: T2, Bone morphogenetic protein 1 (Homo sapiens, UniProt P13497); assay: Inhibition of C-terminal FLAG-6x-His epitope tagged and N-terminal human RAGE signal sequence tagged human BMP1 (23 to 721 amino acids) expressed in CHO-E1A cells pre-incubated for 10 mins before promyostatin peptide substrate addition and measured after 60 mins using 0.5 nM BMP1 by FRET based assay; assay type: cell-based
T2 sequence (P13497 whole entry): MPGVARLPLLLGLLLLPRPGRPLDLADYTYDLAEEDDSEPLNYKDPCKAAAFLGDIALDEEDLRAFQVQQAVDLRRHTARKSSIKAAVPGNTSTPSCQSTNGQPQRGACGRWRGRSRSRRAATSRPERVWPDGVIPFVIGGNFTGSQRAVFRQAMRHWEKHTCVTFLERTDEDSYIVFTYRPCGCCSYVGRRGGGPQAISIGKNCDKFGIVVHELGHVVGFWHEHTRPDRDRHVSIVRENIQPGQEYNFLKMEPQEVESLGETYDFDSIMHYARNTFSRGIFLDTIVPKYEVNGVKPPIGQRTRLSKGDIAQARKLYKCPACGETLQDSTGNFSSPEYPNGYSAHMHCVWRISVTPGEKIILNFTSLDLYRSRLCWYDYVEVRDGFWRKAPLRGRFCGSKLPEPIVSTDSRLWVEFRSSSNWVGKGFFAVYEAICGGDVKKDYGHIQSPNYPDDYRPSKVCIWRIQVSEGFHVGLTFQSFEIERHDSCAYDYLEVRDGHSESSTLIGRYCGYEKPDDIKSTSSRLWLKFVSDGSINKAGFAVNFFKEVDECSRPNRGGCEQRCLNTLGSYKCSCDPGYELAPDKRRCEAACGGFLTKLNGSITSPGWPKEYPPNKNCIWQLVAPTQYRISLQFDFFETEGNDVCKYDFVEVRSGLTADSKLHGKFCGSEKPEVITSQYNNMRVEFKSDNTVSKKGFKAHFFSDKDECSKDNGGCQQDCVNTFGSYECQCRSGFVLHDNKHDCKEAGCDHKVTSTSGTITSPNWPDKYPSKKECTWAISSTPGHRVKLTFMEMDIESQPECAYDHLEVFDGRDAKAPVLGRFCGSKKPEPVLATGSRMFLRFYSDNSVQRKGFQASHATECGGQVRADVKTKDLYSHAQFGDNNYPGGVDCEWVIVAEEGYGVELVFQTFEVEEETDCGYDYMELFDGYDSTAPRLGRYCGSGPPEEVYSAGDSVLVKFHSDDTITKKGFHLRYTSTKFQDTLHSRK

[2] = biological target: T2, Bone morphogenetic protein 1; assay: Inhibition of C-terminal FLAG-6x-His epitope tagged and N-terminal human RAGE signal sequence tagged human BMP1 (23 to 721 amino acids) expressed in CHO-E1A cells pre-incubated for 10 mins before promyostatin peptide substrate addition and measured after 30 mins using 50 nM BMP1 by FRET based assay; assay type: cell-based
[3] = Reduction in PICP levels in human cardiac fibroblasts incubated for 24 to 48 hrs by ELISA; assay type: functional
[4] = Reduction in mature collagen deposition levels in human cardiac fibroblasts incubated for 24 to 48 hrs by immunostaining based assay; assay type: functional

Sequence of Tolloid-like protein 1 (O43897 148-1013 I156V/N221S/V284A limits assumed): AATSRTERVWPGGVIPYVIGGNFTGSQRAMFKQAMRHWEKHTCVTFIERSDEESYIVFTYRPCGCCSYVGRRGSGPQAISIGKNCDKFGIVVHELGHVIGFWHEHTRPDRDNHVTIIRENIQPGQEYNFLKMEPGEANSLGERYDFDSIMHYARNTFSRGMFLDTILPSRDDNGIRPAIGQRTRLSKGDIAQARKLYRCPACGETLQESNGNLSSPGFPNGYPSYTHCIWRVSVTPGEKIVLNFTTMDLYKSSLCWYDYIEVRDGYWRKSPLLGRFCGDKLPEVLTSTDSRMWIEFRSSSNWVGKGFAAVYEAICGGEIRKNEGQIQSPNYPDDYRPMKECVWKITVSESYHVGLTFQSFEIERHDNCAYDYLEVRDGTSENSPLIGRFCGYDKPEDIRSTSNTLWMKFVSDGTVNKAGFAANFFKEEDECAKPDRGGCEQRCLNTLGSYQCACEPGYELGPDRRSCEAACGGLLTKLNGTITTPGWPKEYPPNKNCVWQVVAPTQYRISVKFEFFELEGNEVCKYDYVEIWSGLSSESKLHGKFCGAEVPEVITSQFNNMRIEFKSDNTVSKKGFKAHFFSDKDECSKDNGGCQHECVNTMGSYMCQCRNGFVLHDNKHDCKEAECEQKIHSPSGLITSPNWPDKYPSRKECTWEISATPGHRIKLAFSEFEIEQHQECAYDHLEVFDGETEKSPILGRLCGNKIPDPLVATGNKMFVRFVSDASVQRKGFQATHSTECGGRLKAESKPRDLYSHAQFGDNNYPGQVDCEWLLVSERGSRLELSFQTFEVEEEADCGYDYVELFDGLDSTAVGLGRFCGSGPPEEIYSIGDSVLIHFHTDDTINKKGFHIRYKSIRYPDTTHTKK

| Structure (SMILES) | IC50 (Tolloid-like protein 2) [nM] | IC50 (Tolloid-like protein 1) [nM] | IC50 [1] [nM] | IC50 [2] [nM] | IC50 [3] [nM] | IC50 [4] [nM] |
| --- | --- | --- | --- | --- | --- | --- |
| CCCCC[C@@H](C(=O)NCNC(=O)c1cccc(-c2ccc(CC(=O)O)c(OCC)c2)c1)[C@@H](CC)N(O)C=O | < 631 | < 398 | < 126 | < 251 | < 20000 | < 1580 |
| CCCCC[C@@H](C(=O)NCNC(=O)c1cccc(-c2ccc(P(=O)(O)O)c(OCC)c2)c1)[C@@H](CC)N(O)C=O | < 631 | < 398 | < 126 | < 251 | < 20000 | – |
| CCCCC[C@@H](C(=O)NCNC(=O)c1cccc(-c2cc(OCC)cc(C(=O)N(CC(=O)O)CC(=O)O)c2)n1)[C@@H](CC)N(O)C=O | < 631 | < 398 | < 126 | < 251 | < 20000 | – |
| CCCCC[C@@H](C(=O)NCNC(=O)c1cccc(-c2ccc(C(=O)O)c(C(=O)O)c2)n1)[C@@H](CC)N(O)C=O | < 631 | < 398 | < 126 | < 251 | < 20000 | – |
| CCCCC[C@@H](C(=O)NCNC(=O)c1cccc(-c2ccc(C(=O)NCP(=O)(O)O)c(OCC)c2)n1)[C@@H](CC)N(O)C=O | < 631 | < 398 | < 126 | < 251 | < 20000 | – |
| CCCCC[C@@H](C(=O)NCNC(=O)c1cccc(-c2cc(O)cc(P(=O)(O)O)c2)n1)[C@@H](CC)N(O)C=O | < 631 | < 398 | < 126 | < 251 | < 20000 | – |
| CCCCC[C@@H](C(=O)NCNC(=O)c1cccc(-c2ccc(C(=O)N[C@@H](CC(=O)O)C(=O)O)c(C)c2)n1)[C@@H](CC)N(O)C=O | < 631 | < 398 | < 126 | < 251 | < 20000 | – |
| CCCCC[C@@H](C(=O)NCNC(=O)c1cccc(-c2ccc(C(=O)N[C@@H](CCC(=O)O)C(=O)O)c(OCC)c2)n1)[C@@H](CC)N(O)C=O | < 631 | < 398 | < 126 | < 251 | < 20000 | – |
| CCCCC[C@@H](C(=O)NCNC(=O)c1cccc(-c2cc(OCC)cc(P(=O)(O)O)c2)c1)[C@@H](CC)N(O)C=O | < 631 | < 398 | < 126 | < 251 | < 20000 | – |
| CCCCC[C@@H](C(=O)NCNC(=O)c1cccc(-c2cc(OCC(=O)O)cc(C(=O)O)c2)n1)[C@@H](CC)N(O)C=O | < 631 | < 398 | < 126 | < 251 | < 20000 | – |
| CCCCC[C@@H](C(=O)NCNC(=O)c1cccc(-c2ccc(C(=O)N[C@@H](CC(=O)O)C(=O)O)cc2)n1)[C@@H](CC)N(O)C=O | < 631 | < 398 | < 126 | < 251 | < 20000 | – |
| CCCCC[C@@H](C(=O)NCNC(=O)c1cccc(-c2ccc(C(=O)NCP(=O)(O)O)c(C)c2)n1)[C@@H](CC)N(O)C=O | < 631 | < 398 | < 126 | < 251 | < 20000 | – |
| CCCCC[C@@H](C(=O)NCNC(=O)c1cccc(-c2ccc(C(=O)N[C@@H](CCC(=O)O)C(=O)O)cc2)n1)[C@@H](CC)N(O)C=O | < 631 | < 398 | < 126 | < 251 | < 20000 | – |
| CCOc1cc(-c2cccc(C(=O)NCNC(=O)[C@H](CCc3ccccc3)[C@@H](CC)N(O)C=O)n2)ccc1C(=O)O | – | – | < 126 | < 251 | < 20000 | < 1580 |
| CCCCC[C@@H](C(=O)NCNC(=O)c1cccc(-c2ccc(C(=O)N(CC(=O)O)CC(=O)O)c(OCC)c2)n1)[C@@H](CC)N(O)C=O | < 631 | < 398 | < 126 | < 251 | < 20000 | – |
| CCCCC[C@@H](C(=O)NCNC(=O)c1cc(C(=O)O)cc(-c2ccccc2)c1)[C@@H](CC)N(O)C=O | < 631 | < 398 | < 126 | < 251 | < 20000 | – |
| CCCCC[C@@H](C(=O)NCNC(=O)c1cccc(-c2ccc(C(=O)N[C@@H](CC(=O)O)C(=O)O)c(F)c2)n1)[C@@H](CC)N(O)C=O | < 631 | < 398 | < 126 | < 251 | < 20000 | – |
| CCCCC[C@@H](C(=O)NCNC(=O)c1cccc(-c2cc(OCC)cc(P(=O)(O)O)c2)n1)[C@@H](CC)N(O)C=O | < 631 | < 398 | < 126 | < 251 | < 20000 | – |
| CCCCC[C@@H](C(=O)NCNC(=O)c1cccc(-c2ccc(C(=O)NCP(=O)(O)O)cc2)n1)[C@@H](CC)N(O)C=O | < 631 | < 398 | < 126 | < 251 | < 20000 | – |
| CCCCC[C@@H](C(=O)NCNC(=O)c1cccc(-c2ccc(C(=O)NCP(=O)(O)O)c(O)c2)n1)[C@@H](CC)N(O)C=O | < 631 | < 398 | < 126 | < 251 | < 20000 | – |
| CCCCC[C@@H](C(=O)NCNC(=O)c1cccc(-c2ccc(C(=O)N[C@@H](CC(=O)O)C(=O)O)c(Cl)c2)n1)[C@@H](CC)N(O)C=O | < 631 | < 398 | < 126 | < 251 | < 20000 | – |
| CCCCC[C@@H](C(=O)NCNC(=O)c1cccc(-c2ccc(C(=O)N[C@H](CC(=O)O)C(=O)O)cc2)n1)[C@@H](CC)N(O)C=O | < 631 | < 398 | < 126 | < 251 | < 20000 | – |
| CCCCC[C@@H](C(=O)NCNC(=O)c1cccc(-c2cc(OCC)cc(S(=O)(=O)O)c2)c1)[C@@H](CC)N(O)C=O | < 631 | < 398 | < 126 | < 251 | < 20000 | – |
| CCCCC[C@@H](C(=O)NCNC(=O)c1cccc(-c2ccc(C(=O)N[C@@H](CC(=O)O)C(=O)O)c(OCC(=O)O)c2)c1)[C@@H](CC)N(O)C=O | < 631 | < 398 | < 126 | < 251 | < 20000 | – |
| CCCCC[C@@H](C(=O)NCNC(=O)c1cccc(-c2cc(OCC)cc(C(=O)NCCN)c2)n1)[C@@H](CC)N(O)C=O | – | – | < 126 | < 251 | < 20000 | < 1580 |
